Results published in US20170176439A1, “MARKERS AND THERAPEUTIC INDICATORS FOR GLIOBLASTOMA MULTIFORME (GBM)” (Institute for Systems Biology, priority 2014, published 2017).

How the values were obtained:
[1] = system: C-terminal phosphorylation of SMAD2; assay: C-terminal phosphorylation of SMAD2 in U87 cells; assay type: cell-based
Protocol: (§1) To identify markers for subjects that may benefit from this treatment, astrocytoma cell line U87 was serum starved overnight and treated with 10 ng/ml TGF-β1 for 40 hrs. […] However, as serum contains many essential elements and growth factors, the effect of serum starvation on cells might not be specific to the inhibition of TGF-β signaling. Therefore, we employed a TGF-β-inhibitor (SB 431542) known to interfere with the C-terminal phosphorylation of SMAD2. […] Thus in subsequent SRM analysis, TGF-β-inhibitor was used instead of serum starving.

[2] = system: primary GBM cells from SN143 tumor tissues; assay: Flow cytometry of GBMSig expression in primary GBM cells from SN143 tumor tissue with TGF-β or its inhibitor; assay type: cell-based
Protocol: (§2) The expression of the selected GBMSig proteins responsive to TGF-β viz. SLC16A1, HMOX1, MRC2, SLC16A3, CD47, and CD97 was also tested in primary GBM cells from SN143 tumor tissues in the presence of TGF-β or its inhibitor by flow cytometry.

[3] = system: healthy neural stem cells (NSCs); assay: GBMSig cell-surface expression in healthy NSCs with TGF-β1 or inhibitor; assay type: cell-based
Protocol: [The source words this procedure for another cell line and reports this cell line under the same test.] as §2, with “cytometry. […] EGFR, EGFRVIII, and PTEN altered in GBM can create further heterogeneities in TGF-β responsiveness as observed through the expression of various GBMSig proteins.” for “cytometry.”

[4] = system: U87 cell line; assay: d-SRM assays of GBMSig protein expression in U87 cell line after TGF-β vs TGF-β-inhibitor treatment; assay type: cell-based
Protocol: Novel TGF-β responsive elements were identified among GBMSig through experimental validation. […] U87 cells were treated with TGF-β1 or its inhibitor alone or sequentially with inhibitor followed by TGF-β1. Changes in expressions of GBMSig proteins following such treatments were measured by SRM assays.
as §1

[5] = system: U-87 cells; settings: U-87, flow cytometry
Protocol: In an alternate assay, six GBMSig proteins viz. SLC16A1, MRC2, CD47, SLC16A3, HMOX1, and CD97 were tested as downstream factors of TGF-β signaling by flow cytometry. TGF-β or TGF-β inhibitor treated intact U-87 cells were analyzed by flow cytometry and the ratio of the respective GBMSig expression in response to TGF-β1 over its inhibitor was obtained.

[6] = system: isogenic cell lines of U87 (EGFR, EGFRVIII, PTEN); assay: Cell-surface GBMSig expression in response to TGF-β in U87 isogenic cell lines; assay type: cell-based
Protocol: Isogenic cell lines of U87 where key proliferative genes such as EGFR and EGFRVIII are overexpressed alone or in combination with PTEN were tested for molecular responsiveness of isogenic cell lines towards TGF-β treatment. In EGFR and EGFRVIII isogenic cell lines, there was elevated surface expression of SLC16A1 and HMOX1 in response to TGF-β treatment. PTEN expression, however, inhibited this effect, indicating possible involvement of a tumor suppressor PTEN in modulating the surface expression of these proteins in GBM. On the other hand, MRC2 and CD47 were up regulated in response to TGF-β treatment when PTEN was overexpressed.
Commonly mutated GBM genes include EGFR, EGFRVIII, and PTEN. Four isogenic cell lines of U87 in which these genes are expressed alone or in combinations of EGFRVIII and PTEN or EGFR and PTEN via a stably integrated retroviral vector were used (Gini, B., et al., Clin Cancer Res. (2013) 19:5722-5732).
There was an increase in the cell-surface expression of CD47, SLC16A3, MRC2, HMOX1 and SLC16A1 in response to TGF-β in all U87 isogenic cell lines similar to that of the parental cell line.

[7] = U87 isogenic overexpressing EGFR
[8] = U87 isogenic overexpressing EGFRVIII
[9] = primary GBM cells from SN143 tissue, flow cytometry

In the case of `NC(=O)c1ccc(-c2nc(-c3ccc4c(c3)OCO4)c(-c3ccccn3)[nH]2)cc1` [SB 431542], the “C-terminal phosphorylation of SMAD2” value ([1]; cells in normal media (DMEM+10% FCS) supplemented with inhibitor) is reported as “dampened or diminished”, the “increase in surface expression of HMOX1 in response to TGF-β-inhibitor treatment relative to TGF-β treatment” value ([2]; SN143 tumor-derived GCSC populations) is reported as 30% and the “expression of MRC2, CD47, SLC16A3 and CD97 after TGF-β-inhibitor treatment” value ([3]; NSCs) is reported as “increased expression”. The “effect on SLC16A1, HMOX1 and CD97 expression” value ([3]; healthy NSCs) was “little or no effect”, the “expression of CD47 in response to TGF-β-inhibitor treatment compared to TGF-β1 treatment” value ([3]; healthy NSCs) was 0.61 fold and the “expression of MRC2 in response to TGF-β-inhibitor treatment compared to TGF-β1 treatment” value ([3]; healthy NSCs) was 0.19 fold.

For “TGF-β1: TGF-β1, inducer of epithelial to mesenchymal transition, used at 10 ng/ml to treat cells”, the “C-terminal phosphorylation of SMAD2” value ([1]; U87 serum starved overnight, 10 ng/ml TGF-β1 for 40 hrs, in comparison to cells in serum-free media) was “increased”, the “CD109 expression following TGF-β treatment relative to TGF-β-inhibitor alone” value [4] was 2.09 fold and the “CLCC1 expression following TGF-β treatment relative to TGF-β-inhibitor alone” value [4] was 2.26 fold. For the same compound, the “CRTAP expression following TGF-β treatment relative to TGF-β-inhibitor alone” value [4] was 2.12 fold, the “DDR2 expression following TGF-β treatment relative to TGF-β-inhibitor alone” value [4] was 3.53 fold and the “ITGA7 expression following TGF-β treatment relative to TGF-β-inhibitor alone” value [4] was 9.45 fold. The “MGST1 expression following TGF-β treatment relative to TGF-β-inhibitor alone” value [4] was 2.77 fold, the “MRC2 expression following TGF-β treatment relative to TGF-β-inhibitor alone” value [4] was 3.06 fold and the “PTGFRN expression following TGF-β treatment relative to TGF-β-inhibitor alone” value [4] was 2.18 fold. The “SLC16A1 expression following TGF-β treatment relative to TGF-β-inhibitor alone” value [4] was 2.05 fold, the “TGFBI expression following TGF-β treatment relative to TGF-β-inhibitor alone” value [4] was 10.54 fold and the “TNC expression following TGF-β treatment relative to TGF-β-inhibitor alone” value [4] was 6.55 fold. For the same compound, the “enrichment of CD47, VCAM1, MYOF, ABCA1, CD44, S100A10, CA12 and SLC16A3 on TGF-β treatment vs. TGF-β-inhibitor treatment” value [4] was greater than 1.3 fold, the “expression of CD97, SCAMP3, PDIA4, CD99, ABCA1, TMX1, RTN4 and CD151 following TGF-β treatment in comparison to inhibitor treatment” value [4] was “remained largely unchanged” and the “expression of the 11 proteins when TGF-β-inhibitor treated cells were retreated with TGF-β” value [4] was “overexpressed”. For the same compound, the “expression of ASPH, NRP1, CD276 and HMOX1 following TGF-β treatment” value ([4]; vs inhibitor treatment) was “relatively reduced”, the “increase of ratio of cell-surface CD47, TGF-β over TGF-β inhibitor” value [5] was 40% and the “increase of ratio of cell-surface HMOX1, TGF-β over TGF-β inhibitor” value [5] was 20%. For the same compound, the “increase of ratio of cell-surface MRC2, TGF-β over TGF-β inhibitor” value [5] was 25%, the “increase of ratio of cell-surface SLC16A1, TGF-β over TGF-β inhibitor” value [5] was 20% and the “increase of ratio of cell-surface SLC16A3, TGF-β over TGF-β inhibitor” value [5] was 30%. For the same compound, the “increase of ratio of cell-surface CD97, TGF-β over TGF-β inhibitor” value ([5]; essentially no change) was 1.1 fold, the “expression of HMOX1 in response to TGF-β” value ([6]; EGFR+PTEN cells) was 1.058 fold and the “expression of SLC16A1 in response to TGF-β” value ([6]; EGFR+PTEN cells) was 0.724 fold. The “expression of CD97” value ([6]; EGFRVIII alone) was 0.75±0.010 fold, the “expression of SLC16A3” value ([6]; EGFRVIII alone) was 0.97 fold and the “expression of CD97” value ([6]; EGFRVIII+PTEN cells) was 1.51 fold. For the same compound, the “expression of HMOX1 in response to TGF-β” value ([6]; EGFRVIII+PTEN cells) was 1.48 fold, the “expression of SLC16A1 in response to TGF-β” value ([6]; EGFRVIII+PTEN cells) was 1.19 fold and the “expression of SLC16A3” value ([6]; EGFRVIII+PTEN cells) was 1.3 fold. The “increase in expression of HMOX1 in response to TGF-β compared to the parental cell line” value [6, 7] was 2.69 fold, the “increase in expression of SLC16A1 in response to TGF-β compared to the parental cell line” value [6, 7] was 1.5±0.028 fold and the “increase in expression of HMOX1 in response to TGF-β compared to the parental cell line” value [6, 8] was 2.13 fold. The “increase in expression of SLC16A1 in response to TGF-β compared to the parental cell line” value [6, 8] was 1.75 fold, the “cell-surface expression of CD47, SLC16A3, MRC2, HMOX1 and SLC16A1 in response to TGF-β” value ([6]; all U87 isogenic cell lines, similar to parental cell line) was “increase” and the “MRC2 and CD47 expression in response to TGF-β treatment” value ([6]; when PTEN was overexpressed) was “up regulated”. For the same compound, the “expression of HMOX1 when treated with TGF-β1 compared to its inhibitor” value [2, 9] was 0.77 fold, the “expression of MRC2 when treated with TGF-β1 compared to its inhibitor” value [2, 9] was 1.62 fold and the “expression of SLC16A1 when treated with TGF-β1 compared to its inhibitor” value [2, 9] was 0.79 fold. For the same compound, the “changes in cell-surface expression of SLC16A1, HMOX1, MRC2, CD47, SLC16A3 and CD97 in response to TGF-β treatment” value ([3]; NSCs) was “no significant changes” and the “effect on SLC16A1, HMOX1 and CD97 expression” value ([3]; healthy NSCs) was “little or no effect”.
